Laboratory results published in patent US20050119284A1, “ANTIVIRAL AGENTS AND METHODS OF USE” (priority 2003, published 2005).
“And” between values parts separate entries of the source, which are not always exact repeats. Equal values may be shown once. “Also recorded” adds a separate entry of the source.

Experiments:
[1] = system: bovine viral diarrhea virus (BVDV); assay: BVDV plaque assay in MDBK cells; type: cell-based; settings: for Antiviral effect on BVDV in the presence of thymidine (in words): 1 mM thymidine, cytotoxicity blocked; for Effect on viral yield: MDBK cells with BVDV, without thymidine; for Antiviral effect on BVDV replication (in words): increasing concentrations; for Decrease in BVDV replication / viral titers: in the presence of 1 mM thymidine; for Pfu/microL Avg: average of three; for Pfu/microL: individual replicates
MDBK cells [2] = system: MDBK cells
HCV 1 bN replicon [3] = settings: 100 uM, 1 mM thymidine, 72 hours, Huh7
MDBK cells [4] = assay: Host cell growth / cytotoxicity, mock-infected MDBK cells counted by flow cytometry; settings: for Decrease in cell growth: confluent MDBK cells, concentrations used for the AZA/MPA comparison; for Cellular cytotoxicity / cell viability at antiviral concentrations: MDBK cells, concentrations assayed
[5] = given to mice; cited from earlier work
HCV 1 bN replicon [6] = settings: two recent studies; cited from earlier work

## Sc1ncnc2nc[nH]c12 [6-mercaptopurine]
[1]
  Antiviral effect on BVDV in the presence of thymidine (in words): significantly reduced; also recorded: still possessed this antiviral effect
  Effect on viral yield: decreased
  Decrease in BVDV replication / viral titers: 2 log
[1]; MDBK cells, listed as 6MP
  Antiviral effect on BVDV replication (in words): sensitive; also recorded: specifically inhibited
MDBK cells [2]
  Effect on cell growth: decreased
  Effect on cell growth in the presence of thymidine: neither azathioprine metabolite had an appreciable effect

## CSc1ncnc2nc[nH]c12 [6-methyl mercaptopurine]
[1]
  Effect on viral yield: no effect
MDBK cells [2]
  Effect on cell growth: no effect

## Nc1nc2nc[nH]c2c(=S)[nH]1 [6-thioguanine]
[1]
  Antiviral effect on BVDV in the presence of thymidine (in words): did not
  Effect on viral yield: decreased
  Decrease in BVDV replication / viral titers: did not
[1]; MDBK cells
  Antiviral effect on BVDV replication (in words): no antiviral affect
MDBK cells [2]
  Effect on cell growth: decreased
  Effect on cell growth in the presence of thymidine: neither azathioprine metabolite had an appreciable effect

## OC[C@H]1O[C@@H](n2cnc3c(S)ncnc32)[C@H](O)[C@@H]1O [6TI, 6 thioinosine]
[1]; BVDV replication, FIG. 11
  Antiviral properties relative to 6MP: 2-3 fold

## Cn1cnc([N+](=O)[O-])c1Sc1ncnc2nc[nH]c12 [AZA, azathioprine]
[1]
  Antiviral effect on BVDV in the presence of thymidine (in words): the majority of the antiviral effect was maintained; also recorded: still occurred
  Decrease in BVDV replication / viral titers: two
[1]; MDBK cells, increasing AZA, 72 hours
  Inhibition of viral replication relative to inhibition of cell growth: 10-100 fold
[1]; MDBK cells
  Antiviral effect on BVDV replication (in words): sensitive; also recorded: specifically inhibited
[1]; at doses that achieved similar cytoxicity
  Decrease of BVDV replication relative to MPA: 10 fold
[1]; confluent MDBK cells, concentrations causing similar decrease in cell growth
  Virus produced per living cell, compared to cells grown in MPA: 12%
[1]; confluent MDBK cells, doses allowing similar cellular growth, 72 hours
  Amount of BVDV virus generated, AZA versus MPA: significantly less
HCV 1 bN replicon [3]
  Amount of replicon compared to no drug: ~50%
  Increase in number of cycles to reach critical threshold (Ct) compared to no drug: ~1 cycle
MDBK cells [4]
  Decrease in cell growth: ~50%

## COc1c(C)c2c(c(O)c1C/C=C(\C)CCC(=O)O)C(=O)OC2 [MPA, mycophenolate]
MDBK cells [2]
  Effect on cell growth: killed all the cells
MDBK cells [4]
  Decrease in cell growth: ~50%

## CC(=O)/C=C\Sc1ncnc2[nH]cnc12 [cis-AVTP, cis-6-(2-acetylvinylthio) purine]
[1]
  Antiviral effect on BVDV in the presence of thymidine (in words): still occurs
[1]; 10 microM
  Pfu/microL Avg: 2 Pfu/microL
[1]; 10 microM, listed as cis
  Pfu/microL: 1.4 Pfu/microL and 2.5 Pfu/microL and 2.1 Pfu/microL
[1]; 100 microM
  Pfu/microL Avg: 0.35 Pfu/microL
[1]; 100 microM, listed as cis
  Pfu/microL: 0.34 Pfu/microL and 0.35 Pfu/microL and 0.36 Pfu/microL
[1]; MDBK cells
  Antiviral effect on BVDV replication (in words): sensitive; also recorded: significant anti-viral activity
[1]; MDBK cells, listed as cisAVTP
  Antiviral effect on BVDV replication (in words): able to inhibit
[5]
  Levels of 6MP in the liver and gastrointestinal tract: high levels
  Side effects: no significant side effects
MDBK cells [4]
  Cellular cytotoxicity / cell viability at antiviral concentrations: without cellular cytoxicity
MDBK cells [4]; listed as cisAVTP
  Cellular cytotoxicity / cell viability at antiviral concentrations: did not affect overall cell viability

## NC(=O)c1ncn([C@@H]2O[C@H](CO)[C@@H](O)[C@H]2O)n1 [ribavirin]
HCV 1 bN replicon [6]
  Antiviral (Hepatitis GB) or anti-HCV replicon activity: weak

## CC(=O)/C=C/Sc1ncnc2[nH]cnc12 [trans-AVTP, trans-6-(2-acetylvinylthio) purine]
[1]; 10 uM
  Antiviral activity compared between isomers: less antiviral than cis-AVTP
[1]; 10 microM
  Pfu/microL Avg: 65.67 Pfu/microL
  Pfu/microL: 53 Pfu/microL and 73 Pfu/microL and 71 Pfu/microL
[1]; 100 microM
  Pfu/microL Avg: 0.33 Pfu/microL
  Pfu/microL: 0.32 Pfu/microL and 0.38 Pfu/microL and 0.29 Pfu/microL
